Experimental findings from patent publication US6303596A, “Use of taurolidine for treatment of leukemias” (priority 2000, dated 2001) are described below.

In data set [1] the test system is REH. The data set is described as follows: growth rate after taurolidine treatment, REH. The format is cell-based. Conditions: Homo sapiens, 72 h, growth over three days, read-out: growth rate (% of control). The method, then: FIGS. 8A and 8B depict cell viability and growth rates for REH cell line following taurolidine treatment, in terms of % trypan blue negative cells and % cell number, respectively. Cells were treated with various concentrations of taurolidine for 4 hours in AIM-V+0.01% BCS. After aliquots were collected for LDH assay, the remainder of the culture was rinsed in HBSS and resuspended in RPMI+10% BCS without taurolidine. Counts of trypan blue-negative cells (FIG. 8A), and total cell number (FIG. 8B), were recorded daily thereafter (with the measurement at Day 1 being made immediately after the 4 hour taurolidine treatment). […] Doubling times were determined under each condition, and expressed as a percentage of the rate of doubling of untreated cells. […]
In these experiments, integrity of cell membranes following taurolidine treatment was assessed by exclusion of trypan blue and by measuring the release of LDH in MM6, K-562, HL-60, and REH cells. […] A parallel aliquot of cells was lysed by three cycles of freeze/thaw and the quantity of LDH released was taken to be 100%. […]
HL-60 cells treated with 50 μl taurolidine. In these samples, LDH present in the culture medium was 8.3±2.3% of that released by completely lysed cells, compared with 2.3±0.8% measured in control cultures. […]
^b Growth rate was measured over three days following treatment.

Data set [2] relates to Monocytes. The data set is described as follows: TUNEL / propidium iodide flow cytometry, monocytes in PBMC, culture medium. In kind it is cell-based, human. The method, then:
FIG. 14A and FIG. 14B are terminal deoxytransferase-mediated deoxyuridine-triphosphate-biotin nick end labeling assay (TUNEL) analyses of control cells and taurolidine-treated PBMC, respectively. Cells were incubated with 100 μg/ml taurolidine for six hours and processed for TUNEL analysis as given below. Parallel samples were stained with FITC-conjugated anti-CD14 and propidium iodide (PI) as described below. Ten thousand events were recorded per sample. TUNEL signal (x-axis) is a measure of DNA fragmentation, which FSC (y-axis) is related to cell size. TUNEL-negative lymphocytes are bounded by the rectangle R1, while TUNEL-negative monocytes (CD14 positive cells) are bounded by the rectangle R2. The vertical line indicates demarcation between TUNEL-negative and TUNEL-positive cells. There were minimal numbers of PI-positive cells in the six hour samples (see Table IV).
In the second method, DNA fragmentation was detected via TUNEL assay according to the manufacturer's instructions. With this methodology, 2×10^6 cells were fixed with 2% paraformaldehyde, permeabilized with 0.1% Triton X-100/0.1% citrate, incubated at 37° C. with terminal deoxynucleotidyl transferase and FITC-dUTP, rinsed and analyzed by flow cytometry. Enhanced FITC signal indicates apoptosis-specific DNA fragmentation. Gavriali, et al, "Identification of programmed cell death in situ via specific labeling of nuclear DNA fragmentation," J Cell Biol 119:493 (1992). Parallel aliquots of unfixed cells were treated with PI and FITC-conjugated anti-CD14 and analyzed by flow cytometry, in order to identify cells with permeable cell membranes (since PI binds to DNA but is excluded from cells with intact plasma membranes) and also to determine the cell-specificity of the apoptotic signal.
A Becton-Dickinson FACSCalibur instrument was used for flow cytometric analysis of cells. Assessment of cell diameter (forward scatter; FCS) and granularity (side scatter; SSC).was carried out on unfixed cells. Discrimination between lymphocytes and monocytes was made possible by their characteristic differences in FSC and SSC, and confirmed by staining monocytes with FITC-labeled anti-CD14 antibodies and lymphocytes with a combination of FITC-conjugated anti-CD3 and PE-conjugated anti-CD19. After incubation with taurolidine (with or without concomitant LPS treatment), cells were rinsed twice in phosphate-buffered saline containing 0.1% bovine serum albumin (PBSA) and 1×10^6 cells were resuspended in 0.1 ml PBSA. After 5 μl FITC-conjugated anti-CD14 was added, cells were incubated in the dark on ice for 15 minutes and then centrifuged at 250×g. Cells were resuspended in 500 μl PBSA containing 5 μg/ml PI and subjected to flow cytometry.
Consequently, TUNEL analysis was performed on PBMC at 3, 6, or 24 hours after treatment with 25 to 100 μg/ml taurolidine. Aliquots of harvested cells were also labeled with FITC-conjugated anti-CD14 antibodies and PI, which allowed identification of monocytes (CD14-positive cells) and cells with damaged cell membranes (PI-positive cells). […] Thus, nearly 75% of the monocytes were TUNEL-positive following treatment with 100 μg/ml taurolidine for six hours. Confirmation that the TUNEL-positive cells were monocytes was obtained by staining with FITC-conjugated anti-CD14.
^a Analysis by flow cytometry after staining cells with FITC-conjugated
anti-CD14 and PI, and processing for TUNEL. Data are mean ± SD of two
^b Percent of cells present in the TUNEL-negative region in control
On the technique in general: Flow cytometry measures light scatter and fluorescence of single cells or particles in a stream.

Take `O=S1(=O)CCN(CN2CCS(=O)(=O)NC2)CN1` [taurolidine, 4,4'-methylenebis(perhydro-1,2,4-thiadiazin 1,1-dioxide)]: the activity at 50 µg/mL in data set [1] (50 μg/ml for 4 h) is 1%. Also, in data set [1] (100 μg/ml for 4 h), the activity at 100 µg/mL was 18%. Moreover, the “TUNEL-positive (apoptotic) monocytes” value in data set [2] (100 μg/ml taurolidine, 6 h, culture medium, 360 min) is recorded as “approximately 75%”. Besides, the “induction of apoptosis at lower doses” value in data set [2] (25 and 50 μg/ml taurolidine, versus 100 μg/ml) was “lower levels of induction of apoptosis”. In data set [2] (Homo sapiens, Monocyte, 100 μg/ml taurolidine, 6 h, culture medium, read-out: TUNEL-positive (apoptotic) monocytes), the cytotoxicity at 100 µg/mL is about 75%. Besides, in data set [2] (Homo sapiens, Monocyte, monocytes, 25 μg/ml, 6 h, percent of control, read-out: % TUNEL-Negative), the viability at 25 µg/mL came to 88.3 ± 2.7%. Besides, in data set [2] (Homo sapiens, Monocyte, monocytes, 50 μg/ml, 6 h, percent of control, read-out: % TUNEL-Negative), the viability at 50 µg/mL was determined as 67.8 ± 18%. The viability at 100 µg/mL in data set [2] (Homo sapiens, Monocyte, monocytes, 100 μg/ml, 6 h, percent of control, read-out: % TUNEL-Negative) was found to be 25.1 ± 11.8%. Further, in data set [2] (monocytes), the “onset of apoptosis after treatment” value is given as “detectable within four to six hours”.
